Laboratory results: PMC5066224, “A Novel Resveratrol Based Tubulin Inhibitor Induces Mitotic Arrest and Activates Apoptosis in Cancer Cells” (Scientific Reports, 2016)

How the values were obtained:
A549 cells = test: Immunofluorescence microscopy of spindle microtubule organisation; type: cell-based, human; conditions: A549, positive control, compared to untreated cells
Procedure: Immunofluorescence microscopy was performed as previously described. A549 cells were grown on coverslips coated with gelatin (0.1%). […] After 24 h of the treatment nonspecific antibody binding sites were blocked using FBS following which cells were incubated with antitubulin antibody (1:500) at RT. Coverslips were washed in PBS, incubated in biotinylated antimouse secondary antibody (1:500; RT for 1 h) followed by Streptavidin-FITC (1:200). Finally, cells were mounted with DABCO and images were captured using Zeiss Fluorescence microscope and analyzed using Axio vision software. Colchicine treated cells were used as a positive control.

CEM cells = test: Intracellular ROS production (H2DCFDA, flow cytometry); type: cell-based, Human; conditions: 5 to 60 min
Procedure: Intracellular ROS generation in cells was assessed using the oxidation-sensitive fluorescent probe 2,7-dichlorodihydro fluorescein diacetate (H2DCFDA) as previously described. CEM cells were treated with SS28 (5 μM) for 5, 10, 15, 30 and 60 min, harvested, washed and incubated with H2DCFDA (30 min at 37 °C) and then fluorescence intensity was analyzed by flow cytometry. H2O2 was used as the positive control.

| Compound | effect on chromosomes and mitosis (immunofluorescence) (A549 cells) | intracellular ROS production (CEM cells) |
| --- | --- | --- |
| COc1cc2c(c(OC)c1OC)-c1ccc(OC)c(=O)cc1[C@@H](NC(C)=O)CC2 [Colchicine, reference compound] | chromosome condensation and metaphase arrest was observed |  |
| OO [H2O2, reference compound] |  | distinct ROS production |
